Values of other authors in patent US20040122104A1 (Collegium Pharmaceutical, Inc., priority 2002, published 2004).
Where two headings read alike, the source gives them in different places.

Key:
[1] = approximately 400,000 patients
[2] = compared with SSRIs and tricyclic antidepressants
[3] = 75-100 mg/day twice daily for 8 weeks, 219 elderly patients
[4] = intravenous, of 10 patients
[5] = not given; remark: listed apart in the source
[6] = in vivo

| Structure (SMILES) | toxicity in humans [1] | global pain score, mean value (1-7 scale (1 very much improved, 4 unchanged, 7 very much worse), patients who reached endpoint) | participants who failed the dose escalation (BID-IR group (twice daily immediate release)) | participants who failed the dose escalation (QD-IR group (once daily immediate release)) | disturbances of REM sleep [2] | only adverse event reported more frequently than for imipramine recipients [3] | patients reporting transient nausea [4] | metabolites as share of the concentration of the parent drug ([5]; liver metabolism) | number of chemically identified metabolites ([5]; liver metabolism) | time in which oral doses are absorbed and extensively distributed in the body ([5]; oral) | top three adverse events associated with discontinuation of treatment [6] |
| --- | --- | --- | --- | --- | --- | --- | --- | --- | --- | --- | --- |
| CCN(CC)C(=O)C1(c2ccccc2)CC1CN (centres unmarked) [milnacipran, Milnacipran] | non-toxic | 2.3 | 6% | 19% | only minor disturbances | nausea | five | about 10% | ten | 1 to 2 h | – |
| CN[C@H]1CC[C@@H](c2ccc(Cl)c(Cl)c2)c2ccccc21 [sertraline] | – | – | – | – | – | – | – | – | – | – | nausea, insomnia, and diarrhea |
